From ChEMBL document CHEMBL1201862, “PubChem BioAssay data set” (2004)
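Where inhibition never reached the appropriate level, the endpoint shown equals the highest concentration tested. Otherwise, values were interpolated linearly from a five-concentration, 48-hour dose response in 96-well plates. GI50 is the concentration that inhibits growth by half.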 The source made the active and inactive calls. Rule as the data show it: active = GI50 up to about 1.1 µM and inactive = higher.

Tests used:
Test in all cases: growth of human tumour cells (NCI), 48 h
CCRF-CEM = system: CCRF-CEM
DU-145 = system: DU-145
HL-60 = system: HL-60
HOP-62 = system: HOP-62
HOP-92 = system: HOP-92
IGROV-1 = system: IGROV-1
MDA-MB-231 = system: MDA-MB-231
MDA-MB-435 = system: MDA-MB-435
MOLT-4 = system: MOLT-4
NCI-H23 = system: NCI-H23
NCI-H460 = system: NCI-H460
OVCAR-5 = system: OVCAR-5
OVCAR-8 = system: OVCAR-8
RXF 393 = system: RXF 393
SK-MEL-2 = system: SK-MEL-2
SK-MEL-5 = system: SK-MEL-5
SNB-19 = system: SNB-19
T47D = system: T47D
UACC-257 = system: UACC-257
UO-31 = system: UO-31

Structure (SMILES) | GI50 (CCRF-CEM) | GI50 (DU-145) | GI50 (HL-60) | GI50 (HOP-62) | GI50 (HOP-92) | GI50 (IGROV-1) | GI50 (MDA-MB-231) | GI50 (MDA-MB-435) | GI50 (MOLT-4) | GI50 (NCI-H23) | GI50 (NCI-H460) | GI50 (OVCAR-5) | GI50 (OVCAR-8) | GI50 (RXF 393) | GI50 (SK-MEL-2) | GI50 (SK-MEL-5) | GI50 (SNB-19) | GI50 (T47D) | GI50 (UACC-257) | GI50 (UO-31)
CCN(CC)CC[n+]1ccc2c(C)c3[nH]c4ccc(O)cc4c3c(C)c2c1 | 1.43 µM (inactive) | 2.4 µM (inactive) | 2.88 µM (inactive) | 2.03 µM (inactive) | 3.85 µM (inactive) | 6.44 µM (inactive) | 10.6 µM (inactive) | 9.42 µM (inactive) | 0.0473 µM (active) | 3.82 µM (inactive) | 0.434 µM (active) | 15.9 µM (inactive) | 3.72 µM (inactive) | 11.1 µM (inactive) | 16 µM (inactive) | 3.09 µM (inactive) | 1.21 µM (inactive) | 2.67 µM (inactive) | 19.6 µM (inactive) | 28 µM (inactive)
CC1=C2C(=O)c3ccccc3C(=O)[C@H]2C[C@@H](N2CCCCCC2=O)O1 | 3.44 µM (inactive) | 18.3 µM (inactive) | 19 µM (inactive) | 19 µM (inactive) | 19.4 µM (inactive) | 16.4 µM (inactive) | 22.5 µM (inactive) | 16 µM (inactive) | 14.7 µM (inactive) | 14.9 µM (inactive) | 18.8 µM (inactive) | 16.7 µM (inactive) | 21.5 µM (inactive) | 27 µM (inactive) | 23.1 µM (inactive) | 16.1 µM (inactive) | 21 µM (inactive) | 20.8 µM (inactive) | 17.4 µM (inactive) | 17 µM (inactive)
C/C(=N\N=C(\N)OB(F)F)c1ccccn1 | 43.4 µM (inactive) | > 100 µM (inactive) | 63.5 µM (inactive) | 37.5 µM (inactive) | 12.7 µM (inactive) | 64.3 µM (inactive) | 24.6 µM (inactive) | > 100 µM (inactive) |  | > 100 µM (inactive) | 40.8 µM (inactive) | > 100 µM (inactive) | 75 µM (inactive) | 9.33 µM (inactive) | > 100 µM (inactive) | > 100 µM (inactive) | > 100 µM (inactive) | > 100 µM (inactive) | > 100 µM (inactive) | 71.4 µM (inactive)
O=C(CC(C(=O)c1ccco1)c1ccco1)c1ccco1 (stereo not given) | 71.1 µM (inactive) | > 100 µM (inactive) | > 100 µM (inactive) | > 100 µM (inactive) | > 100 µM (inactive) | > 100 µM (inactive) | 78.9 µM (inactive) | > 100 µM (inactive) | > 100 µM (inactive) | > 100 µM (inactive) | > 100 µM (inactive) | > 100 µM (inactive) | > 100 µM (inactive) | > 100 µM (inactive) |  | > 100 µM (inactive) |  | > 100 µM (inactive) | > 100 µM (inactive) | 33.1 µM (inactive)
COc1ccccc1-c1nc(-c2ccccc2O)n[nH]1 | > 100 µM (inactive) | > 100 µM (inactive) | > 100 µM (inactive) | > 100 µM (inactive) | > 100 µM (inactive) |  | > 100 µM (inactive) | > 100 µM (inactive) | > 100 µM (inactive) | > 100 µM (inactive) | > 100 µM (inactive) | > 100 µM (inactive) | > 100 µM (inactive) | > 100 µM (inactive) | > 100 µM (inactive) | > 100 µM (inactive) | > 100 µM (inactive) | 37.2 µM (inactive) | > 100 µM (inactive) | > 100 µM (inactive)
c1ccc(C2=NC3OC2c2ccccc23)cc1 (stereo not given) | > 10 µM (inactive) | > 10 µM (inactive) | > 10 µM (inactive) | > 10 µM (inactive) | > 10 µM (inactive) | > 10 µM (inactive) | > 10 µM (inactive) | > 10 µM (inactive) | > 10 µM (inactive) | > 10 µM (inactive) | > 10 µM (inactive) | > 10 µM (inactive) | > 10 µM (inactive) | > 10 µM (inactive) | > 10 µM (inactive) | > 10 µM (inactive) | > 10 µM (inactive) | > 10 µM (inactive) | > 10 µM (inactive) | 
COc1cc2c(cc1O)CCN[C@@]21CS[C@H]2c3c(OC(C)=O)c(C)c4c(c3C(COC1=O)N1C2C2c3c(cc(C)c(OC)c3O)CC([C@@H]1O)N2C)OCO4 (stereo not given in full) | < 0.0001 µM (active) | < 0.0001 µM (active) | < 0.0001 µM (active) | < 0.0001 µM (active) | < 0.0001 µM (active) | < 0.0001 µM (active) | < 0.0001 µM (active) | < 0.0001 µM (active) | < 0.0001 µM (active) | < 0.0001 µM (active) | < 0.0001 µM (active) | 0.0001 µM (active) | < 0.0001 µM (active) | < 0.0001 µM (active) | < 0.0001 µM (active) | < 0.0001 µM (active) | < 0.0001 µM (active) | 0.00296 µM (active) | < 0.0001 µM (active) | 
CC(=O)Oc1c2c(c3n(c1=O)CCCC3)C(=O)N(c1ccccc1)C2=O | > 100 µM (inactive) | > 100 µM (inactive) | > 100 µM (inactive) | > 100 µM (inactive) | 40.7 µM (inactive) | 78.5 µM (inactive) | > 100 µM (inactive) | 46.9 µM (inactive) | > 100 µM (inactive) | > 100 µM (inactive) | > 100 µM (inactive) | > 100 µM (inactive) | > 100 µM (inactive) | > 100 µM (inactive) | 45.8 µM (inactive) | 53.3 µM (inactive) | > 100 µM (inactive) | 87.5 µM (inactive) |  | 95.7 µM (inactive)
CCOC(=O)c1nc2ccc(C(F)(F)F)cc2nc1NCc1cc(OC)c(OC)c(OC)c1 |  | 66.5 µM (inactive) | 33 µM (inactive) | > 100 µM (inactive) | 27.7 µM (inactive) | > 100 µM (inactive) | 60 µM (inactive) | 35.6 µM (inactive) | 70.8 µM (inactive) | 59.2 µM (inactive) |  | > 100 µM (inactive) | > 100 µM (inactive) | 39.9 µM (inactive) | 40.8 µM (inactive) | 27.7 µM (inactive) | > 100 µM (inactive) | 27.6 µM (inactive) | > 100 µM (inactive) | 35.3 µM (inactive)
CCCCCCCC/C=C(\Br)C(O)C(Br)Br (stereo not given) | 16.1 µM (inactive) | 38.6 µM (inactive) |  | 19.6 µM (inactive) | 20.9 µM (inactive) | 24.7 µM (inactive) | 36.8 µM (inactive) | 21.5 µM (inactive) | > 100 µM (inactive) | 22.1 µM (inactive) | 30.4 µM (inactive) | 19.3 µM (inactive) | 23.4 µM (inactive) | 19.3 µM (inactive) | 24.8 µM (inactive) | 17.9 µM (inactive) | 31.8 µM (inactive) | 31 µM (inactive) | 28 µM (inactive) | 19.4 µM (inactive)
Cc1c2ccncc2c(C)c2c1sc1ccccc12 | 3.31 µM (inactive) | 13.3 µM (inactive) | 2.9 µM (inactive) | 7.38 µM (inactive) | 12 µM (inactive) | 5.94 µM (inactive) | 16.5 µM (inactive) | 15 µM (inactive) | 2.33 µM (inactive) | 8.2 µM (inactive) | 2.31 µM (inactive) | 21 µM (inactive) | 8.22 µM (inactive) | 10 µM (inactive) | 21 µM (inactive) | 7.87 µM (inactive) | 9.4 µM (inactive) | 13.1 µM (inactive) | 19.3 µM (inactive) | 
COc1cc2nc3n(c2cc1OC)C(O)c1c(Cl)nc(SC)nc1S3 (stereo not given) | 1.17 µM (inactive) | 2.39 µM (inactive) |  | 3.72 µM (inactive) | 12.2 µM (inactive) | 2.6 µM (inactive) | 4.42 µM (inactive) | 4.01 µM (inactive) | 1.98 µM (inactive) | 4.21 µM (inactive) | 3.44 µM (inactive) | 16.6 µM (inactive) | 2.59 µM (inactive) | 2.3 µM (inactive) | 2 µM (inactive) | 1.92 µM (inactive) | 6.47 µM (inactive) | 3.8 µM (inactive) | 13.1 µM (inactive) | 2.99 µM (inactive)
COc1ccc2c3c1OC1C(=O)C=CC4(CC2)N(C)CCC314 (stereo not given) | 12.7 µM (inactive) | 14.3 µM (inactive) |  | 29.6 µM (inactive) | 22.7 µM (inactive) | 23.7 µM (inactive) | 41.2 µM (inactive) | 12.2 µM (inactive) | 12.8 µM (inactive) | 14 µM (inactive) | 16.6 µM (inactive) | 29.5 µM (inactive) | 22.5 µM (inactive) | 25.9 µM (inactive) | 16.3 µM (inactive) | 10.4 µM (inactive) | 19.5 µM (inactive) | 19.4 µM (inactive) | 28.6 µM (inactive) | 16.3 µM (inactive)
O=C(O)c1cccc(/C=C/c2ccccc2)c1 | > 100 µM (inactive) | 3.08 µM (inactive) |  | > 100 µM (inactive) | > 100 µM (inactive) | > 100 µM (inactive) | > 100 µM (inactive) | > 100 µM (inactive) | > 100 µM (inactive) | > 100 µM (inactive) | > 100 µM (inactive) | > 100 µM (inactive) | > 100 µM (inactive) | > 100 µM (inactive) | > 100 µM (inactive) | > 100 µM (inactive) | > 100 µM (inactive) | > 100 µM (inactive) | > 100 µM (inactive) | > 100 µM (inactive)
CC1=NN(c2nc(N)nc(-c3ccccc3S(N)(=O)=O)n2)C(C)(C)C1 | 9.42 µM (inactive) | 7.38 µM (inactive) | 6.03 µM (inactive) | 13 µM (inactive) | > 100 µM (inactive) | 22.6 µM (inactive) | 22.2 µM (inactive) | 37.8 µM (inactive) | 5.19 µM (inactive) | 20.1 µM (inactive) | 5.07 µM (inactive) | 27.2 µM (inactive) | 16 µM (inactive) | 14 µM (inactive) | 9.2 µM (inactive) | 18.1 µM (inactive) |  | 23.8 µM (inactive) | 30.2 µM (inactive) | 3.92 µM (inactive)
